Tests used:
einigen Bakterien = experiment: Antibacterial activity of free amino acid antagonists; format: cell-based; conditions: lost when built into the tripeptides
Candida albicans = experiment: Growth inhibition / minimal inhibitory concentration in yeast nitrogen base medium; format: cell-based
Protocol: Die weiteren Untersuchungen dieser fünf Tripeptide gegenüber Cadida albicans und Candida pseudotropicalis in »yeast nitrogen base« Medium mit einer Zellzahl von 10^4/ml zu Testbeginn führten zu dem Ergebnis, daß diese Tripeptide keinerlei Wachstumshemmung zeigen. Die Tripeptide werden dabei bis zu einer Konzentration von 10 mg/ml Testmedium beurteilt. Bei den Tripeptiden L-Arg-D-Val-L-Phe und L-Arg-D-Ala-L-Phe werden im Gegenteil sogar Wachstumsförderung von Candida albicans festgestellt.
In der beigefügten Tabelle I sind die kleinsten inhibierenden Konzentrationen der beiden beispielsweisen erfindungsgemäßen Tripeptide 1 und 2 denjenigen der freien Antimetaboliten gegenübergestellt anhand des Beispiels candida albicans. Die Untersuchungen wurden in einem yeast nitrogen base Medium mit einem Glukosegehalt von 2% und einem pH-Wert von 7,2 durchgeführt. Die Zellzahl zu Versuchsbeginn beläuft sich auf 10^4/ml. Die Tests werden in Mikrotiterschalen durchgeführt und es wird 24 Stunden bei 30° C inkubiert.

[1] = dissertation Universität Tübingen 1975; cited from earlier work

Row | durch Carboxypeptidasen spaltbar (Carboxypeptidasen) | Compound | Wirksamkeit gegenüber einigen Bakterien (einigen Bakterien) | also measured
1 | schwerer spaltbar | CC(=O)N[C@@H](CCCNC(=N)N)C(=O)NC(Cc1ccc(F)cc1)C(=O)N[C@@H](Cc1ccccc1)C(=O)O (mixture of isomers) [Verbindung 3, N 1-Acetyl-L-arginyl-DL-(p-fluorphenylalanyl)-L-phenyialanin] | – | –
2 | schwerer spaltbar | N=C(N)NCCC[C@H](N)C(=O)NC(Cc1ccc(F)cc1)C(=O)N[C@@H](Cc1ccccc1)C(N)=O (mixture of isomers) [Verbindung 4, L-Arginyl-DL-(p-fluorphenylalanyl)-L-phenylalaninamid] | – | –
3 | – | NC(Cc1ccc(F)cc1)C(=O)O (racemic) [p-F-DL-Phenylalanin] | Wirksamkeit zeigen | Wirksamkeit gegen candida albicans (Candida albicans): nicht wirksam; MIC (Candida albicans; 24 h, all tested Candida albicans isolates, read-out: inhibierende Konzentration): > 256 µg/mL
4 | – | NC(Cc1cccs1)C(=O)O (racemic) [β-2-DL-Thienylalanin] | Wirksamkeit zeigen | –
5 | – | L-Arginyl-D-allothreonyl-L-phenylalanin | – | antifungische Wirksamkeit [1]: antifungische Wirksamkeit

— patent publication EP0081122B1, “Carrier tripeptides with antifungal activity” (Helopharm W. Petrik GmbH & Co.KG., priority 1982, dated 1985)
